The values that follow come from patent publication EP4790063A1, “PEPTIDE HAVING ACTIVITY FOR […] OF MARINE FOULING” (National University Corporation Hokkaido University, priority 2023, dated 2025).

Where two headings read alike, the source gives them in different places.

Data set [1] concerns cypris larvae of Striped Barnacle. The following applies: Reference value, see Table 1 in non-Patent literature 8; cited from earlier work.
Data set [2] relates to KM20L2 (human colon cancer cell line). The following applies: Non-Patent Document 4; cited from earlier work.
Data set [3] relates to juvenile shellfish of Mediterranean mussel. The data set can be described thus: Evaluation of the antifouling activity and toxicity against the juvenile shellfish of Mediterranean mussel (coated glass beaker, 3 days). It is filed as in vivo, Mytilus galloprovincialis. The following applies: for bottom surface-adhered individuals % / bottom surface-crawling individuals % / overturned individuals or closed shell individuals (unadhered) % / wall surface-adhered individuals % / number of byssal threads on the bottom surface / bottom surface-adhered individuals No. / bottom surface-crawling individuals No. / overturned individuals or closed shell individuals (unadhered) No. / wall surface-adhered individuals No.: three days; for bottom surface-adhered individuals No. / bottom surface-crawling individuals No. / overturned individuals or closed shell individuals (unadhered) No. / wall surface-adhered individuals No.: twelve individuals.
Experimental: The sample was dissolved in ethanol to adjust to a concentration of 1 mg/mL. Thirty and 100 µL (30 and 100 µg) of the sample solutions were mixed with the solvent, and the mixtures were brought to a total volume of 500 µL. These mixtures were spread on the bottom surface of the glass beaker of the test container, and the solvent was volatilized by shaking them overnight. As a result, the samples to be evaluated were coated only on the bottom surface of the glass beaker.
A volume of 10 mL of the test seawater was added to the glass beakers of the test containers. The tests were initiated by introducing twelve test individuals into the test seawater in each beaker. The tests ended after three days, and the observation was conducted.
In Table 2, the terms "bottom surface-adhered individuals" and "wall surface-adhered individuals" refer to individuals that are adhered to the bottom surface and wall surface of the beaker, respectively; the term "bottom surface-crawling individuals" refers to individuals that move along the bottom surface without adhering; the term "overturned individuals or closed shell individuals (unadhered)" refers to individuals that are either overturned or in a closed shell without adhering to the bottom surface; and the term "number of byssal threads on the bottom surface" refers to the number of foot threads that are fixed to the bottom surface. In particular, the greater the reduction in the number of byssal threads, the stronger the effect of adhesion prevention.

In data set [4] the test system is SF-295 (human glioblastoma cell line). The following applies: Non-Patent Document 4; cited from earlier work.
The test system of data set [5] is cypris larvae of the striped barnacle. The note with it: Non-Patent Documents 5 and 7, cited from earlier work.
In data set [6] the test system is NCI-H460 (human lung cancer cell line). The note with it: Non-Patent Document 4; cited from earlier work.

Take `CC(C)[C@@H](NC(=O)[C@@H]1CCCN1C(=O)[C@@H](NC(=O)OC(C)(C)C)[C@H](C)Cc1ccccc1)[C@@H](C)C(=O)OCc1ccccc1` [Boc-3]: in data set [1], the “Toxicity 48h LC50” value is on record as more than 10 µg/mL.

Dolastatin 16 [reference compound]: the “growth-inhibiting effect (in words)” value in data set [2] was “growth-inhibiting effect”. In addition, in data set [3] (3 µg/mL (30 µg)), the “bottom surface-adhered individuals %” value was determined as 75.0%, the “bottom surface-crawling individuals %” value turned out to be 0.0%, the “overturned individuals or closed shell individuals (unadhered) %” value was found to be 0.0% and the “wall surface-adhered individuals %” value was found to be 25.0%. For the same compound, in data set [3] (3 µg/mL (30 µg)), the “bottom surface-adhered individuals No.” value is 9, the “bottom surface-crawling individuals No.” value was 0, the “overturned individuals or closed shell individuals (unadhered) No.” value is on record as 0 and the “wall surface-adhered individuals No.” value is reported as 3. Further, the “number of byssal threads on the bottom surface” value in data set [3] (3 µg/mL (30 µg), control group 118) turned out to be 72. In data set [3] (10 µg/mL (100 µg)), the “bottom surface-adhered individuals %” value amounted to 100.0%, the “bottom surface-crawling individuals %” value amounted to 0.0%, the “number of byssal threads on the bottom surface” value turned out to be 45 and the “overturned individuals or closed shell individuals (unadhered) %” value is 0.0%. For the same compound, in data set [3] (10 µg/mL (100 µg)), the “wall surface-adhered individuals %” value was 0.0%, the “bottom surface-adhered individuals No.” value is reported as 12, the “bottom surface-crawling individuals No.” value stood at 0 and the “overturned individuals or closed shell individuals (unadhered) No.” value was determined as 0. The “wall surface-adhered individuals No.” value in data set [3] (10 µg/mL (100 µg)) is given as 0. Moreover, the “antifouling effect (overall determination in words)” value in data set [3] (juvenile Mediterranean mussel, 3.0 µg/mL and 10 µg/mL) is given as “no antifouling effect”. The “growth-inhibiting effect (in words)” value in data set [4] is “growth-inhibiting effect”. Further, the “antifouling action (in words)” value in data set [5] is “antifouling actions”. The “antifouling action (in words)” value in data set [5] (listed as synthetic Dolastatin 16) was “equivalent to that of the natural Dolastatin 16”. In data set [6], the “growth-inhibiting effect (in words)” value is given as “growth-inhibiting effect”.
